In ChEMBL document CHEMBL4800730 (2021):

Columns and labels:
[1] = target: Serine/threonine-protein kinase Chk1 (Homo sapiens) (UniProt O14757); assay: CHEK1 (CHK1) SelectScreen Kinase panel (LifeTechnologies); settings: Compound concentration 1.0 uM
[2] = target: G protein-coupled receptor kinase 5 (Homo sapiens) (UniProt P34947); assay: GRK5 SelectScreen Kinase panel (LifeTechnologies); settings: Compound concentration 1.0 uM
[3] = target: Calcium/calmodulin-dependent protein kinase type IV (Homo sapiens) (UniProt Q16566); assay: CAMK4 (CaMKIV) SelectScreen Kinase panel (LifeTechnologies); settings: Compound concentration 1.0 uM
[4] = target: Tyrosine-protein kinase ITK/TSK (Homo sapiens) (UniProt Q08881); assay: ITK SelectScreen Kinase panel (LifeTechnologies); settings: Compound concentration 1.0 uM
[5] = target: Protein kinase C iota type (Homo sapiens) (UniProt P41743); assay: PRKCI (PKC iota) SelectScreen Kinase panel (LifeTechnologies); settings: Compound concentration 1.0 uM
[6] = target: Muscarinic acetylcholine receptor M2 (Homo sapiens) (UniProt P08172); settings: Compound concentration 10.0 uM
[7] = target: Serine/threonine-protein kinase TBK1 (Homo sapiens) (UniProt Q9UHD2); assay: TBK1 SelectScreen Kinase panel (LifeTechnologies); settings: Compound concentration 1.0 uM
[8] = target: G protein-coupled receptor kinase 4 (Homo sapiens) (UniProt P32298); assay: GRK4 SelectScreen Kinase panel (LifeTechnologies); settings: Compound concentration 1.0 uM
[9] = target: Alpha-1D adrenergic receptor (Homo sapiens) (UniProt P25100); settings: Compound concentration 10.0 uM
[10] = target: MAP kinase-interacting serine/threonine-protein kinase 1 (Homo sapiens) (UniProt Q9BUB5); assay: MKNK1 (MNK1) SelectScreen Kinase panel (LifeTechnologies); settings: Compound concentration 1.0 uM
[11] = target: Mitogen-activated protein kinase 1 (Homo sapiens) (UniProt P28482); assay: MAPK1 (ERK2) SelectScreen Kinase panel (LifeTechnologies); settings: Compound concentration 1.0 uM
[12] = target: Sodium-dependent dopamine transporter (Homo sapiens, UniProt Q01959); assay: GPCRScan assay: inhibition of DAT; parameters: radioligand conc. used [nm] 3.6 – 16.0, parental cells stable HEK
[13] = target: Serine/threonine-protein kinase DCLK2 (Homo sapiens) (UniProt Q8N568); assay: DCAMKL2 (DCK2) SelectScreen Kinase panel (LifeTechnologies); settings: Compound concentration 1.0 uM
[14] = target: Serine/threonine-protein kinase MRCK alpha (Homo sapiens) (UniProt Q5VT25); assay: CDC42 BPA (MRCKA) SelectScreen Kinase panel (LifeTechnologies); settings: Compound concentration 1.0 uM
[15] = target: Histamine H3 receptor (Homo sapiens) (UniProt Q9Y5N1); settings: Compound concentration 10.0 uM
[16] = target: AMP-activated protein kinase (AMPK) alpha-1/beta-1/gamma-1 (Homo sapiens) (UniProt P54619+Q9Y478+Q13131); assay: AMPK A1/B1/G1 SelectScreen Kinase panel (LifeTechnologies); assay type: protein-complex assay; settings: Compound concentration 1.0 uM
[17] = target: Receptor tyrosine-protein kinase erbB-2 (Homo sapiens) (UniProt P04626); assay: ERBB2 (HER2) SelectScreen Kinase panel (LifeTechnologies); settings: Compound concentration 1.0 uM
[18] = target: Serine/threonine-protein kinase pim-1 (Homo sapiens) (UniProt P11309); assay: PIM1 SelectScreen Kinase panel (LifeTechnologies); settings: Compound concentration 1.0 uM
[19] = target: Proto-oncogene tyrosine-protein kinase receptor Ret (Homo sapiens) (UniProt P07949); assay: RET SelectScreen Kinase panel (LifeTechnologies); settings: Compound concentration 1.0 uM
[20] = target: PAS domain-containing serine/threonine-protein kinase (Homo sapiens) (UniProt Q96RG2); assay: PASK SelectScreen Kinase panel (LifeTechnologies); settings: Compound concentration 1.0 uM
[21] = target: Ribosomal protein S6 kinase alpha-6 (Homo sapiens) (UniProt Q9UK32); assay: RPS6KA6 (RSK4) SelectScreen Kinase panel (LifeTechnologies); settings: Compound concentration 1.0 uM
[22] = target: Ribosomal protein S6 kinase alpha-3 (Homo sapiens) (UniProt P51812); assay: RPS6KA3 (RSK2) SelectScreen Kinase panel (LifeTechnologies); settings: Compound concentration 1.0 uM
[23] = target: Alpha-1A adrenergic receptor (Homo sapiens) (UniProt P35348); settings: Compound concentration 10.0 uM
[24] = target: Serine/threonine-protein kinase Sgk3 (Homo sapiens) (UniProt Q96BR1); assay: SGKL (SGK3) SelectScreen Kinase panel (LifeTechnologies); settings: Compound concentration 1.0 uM
[25] = target: D(4) dopamine receptor (Homo sapiens) (UniProt P21917); settings: Compound concentration 10.0 uM
[26] = species on record: Rattus norvegicus; settings: Compound concentration 10.0 uM
[27] = target: Serine/threonine-protein kinase MARK1 (Homo sapiens) (UniProt Q9P0L2); assay: MARK1 (MARK) SelectScreen Kinase panel (LifeTechnologies); settings: Compound concentration 1.0 uM
[28] = target: Alpha-1B adrenergic receptor (Homo sapiens) (UniProt P35368); settings: Compound concentration 10.0 uM
[29] = target: Mast/stem cell growth factor receptor Kit (Homo sapiens) (UniProt P10721); assay: KIT SelectScreen Kinase panel (LifeTechnologies); settings: Compound concentration 1.0 uM
[30] = target: Rhodopsin kinase GRK7 (Homo sapiens) (UniProt Q8WTQ7); assay: GRK7 SelectScreen Kinase panel (LifeTechnologies); settings: Compound concentration 1.0 uM
[31] = target: D(1A) dopamine receptor (Homo sapiens) (UniProt P21728); settings: Compound concentration 10.0 uM
[32] = target: Sodium-dependent noradrenaline transporter (Homo sapiens) (UniProt P23975); settings: Compound concentration 10.0 uM
[33] = target: Protein kinase C zeta type (Homo sapiens) (UniProt Q05513); assay: PRKCZ (PKC zeta) SelectScreen Kinase panel (LifeTechnologies); settings: Compound concentration 1.0 uM
[34] = target: Receptor-type tyrosine-protein kinase FLT3 (Homo sapiens) (UniProt P36888); assay: FLT3 SelectScreen Kinase panel (LifeTechnologies); settings: Compound concentration 1.0 uM
[35] = target: Ephrin type-B receptor 4 (Homo sapiens) (UniProt P54760); assay: EPHB4 SelectScreen Kinase panel (LifeTechnologies); settings: Compound concentration 1.0 uM
[36] = target: Serine/threonine-protein kinase BRSK1 (Homo sapiens) (UniProt Q8TDC3); assay: BRSK1 (SAD1) SelectScreen Kinase panel (LifeTechnologies); settings: Compound concentration 1.0 uM
[37] = target: Serine/threonine-protein kinase Sgk2 (Homo sapiens) (UniProt Q9HBY8); assay: SGK2 SelectScreen Kinase panel (LifeTechnologies); settings: Compound concentration 1.0 uM
[38] = target: D(1B) dopamine receptor (Homo sapiens) (UniProt P21918); settings: Compound concentration 10.0 uM
[39] = target: Protein kinase C alpha type (Homo sapiens) (UniProt P17252); assay: PRKCA (PKC alpha) SelectScreen Kinase panel (LifeTechnologies); settings: Compound concentration 1.0 uM
[40] = target: Sodium-dependent serotonin transporter (Homo sapiens) (UniProt P31645); settings: Compound concentration 10.0 uM
[41] = target: Alpha-2C adrenergic receptor (Homo sapiens) (UniProt P18825); settings: Compound concentration 10.0 uM
[42] = target: Tyrosine-protein kinase TXK (Homo sapiens) (UniProt P42681); assay: TXK SelectScreen Kinase panel (LifeTechnologies); settings: Compound concentration 1.0 uM
[43] = target: Insulin-like growth factor 1 receptor (Homo sapiens) (UniProt P08069); assay: IGF1R SelectScreen Kinase panel (LifeTechnologies); settings: Compound concentration 1.0 uM
[44] = target: Epidermal growth factor receptor (Homo sapiens) (UniProt P00533); assay: EGFR (ErbB1) SelectScreen Kinase panel (LifeTechnologies); settings: Compound concentration 1.0 uM

Chain of Sodium-dependent dopamine transporter (Q01959 whole entry): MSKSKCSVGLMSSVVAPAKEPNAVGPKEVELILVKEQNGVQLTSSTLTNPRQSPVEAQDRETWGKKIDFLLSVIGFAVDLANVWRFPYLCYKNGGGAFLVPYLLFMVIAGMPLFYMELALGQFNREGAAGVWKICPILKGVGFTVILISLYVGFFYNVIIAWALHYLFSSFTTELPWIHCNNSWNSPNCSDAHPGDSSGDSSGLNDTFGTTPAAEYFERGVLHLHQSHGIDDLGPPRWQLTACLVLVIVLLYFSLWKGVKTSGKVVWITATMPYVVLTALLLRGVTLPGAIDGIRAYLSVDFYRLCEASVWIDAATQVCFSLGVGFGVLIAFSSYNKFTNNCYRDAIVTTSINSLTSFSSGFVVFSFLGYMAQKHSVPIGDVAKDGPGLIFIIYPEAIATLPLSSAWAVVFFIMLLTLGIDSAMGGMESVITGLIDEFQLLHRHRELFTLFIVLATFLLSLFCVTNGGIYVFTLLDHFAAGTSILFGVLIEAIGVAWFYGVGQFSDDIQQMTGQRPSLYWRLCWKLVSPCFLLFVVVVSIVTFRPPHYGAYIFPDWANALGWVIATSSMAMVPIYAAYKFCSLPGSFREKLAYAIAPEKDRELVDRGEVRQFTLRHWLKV
Chain of Sodium-dependent noradrenaline transporter (Homo sapiens) (P23975 whole entry): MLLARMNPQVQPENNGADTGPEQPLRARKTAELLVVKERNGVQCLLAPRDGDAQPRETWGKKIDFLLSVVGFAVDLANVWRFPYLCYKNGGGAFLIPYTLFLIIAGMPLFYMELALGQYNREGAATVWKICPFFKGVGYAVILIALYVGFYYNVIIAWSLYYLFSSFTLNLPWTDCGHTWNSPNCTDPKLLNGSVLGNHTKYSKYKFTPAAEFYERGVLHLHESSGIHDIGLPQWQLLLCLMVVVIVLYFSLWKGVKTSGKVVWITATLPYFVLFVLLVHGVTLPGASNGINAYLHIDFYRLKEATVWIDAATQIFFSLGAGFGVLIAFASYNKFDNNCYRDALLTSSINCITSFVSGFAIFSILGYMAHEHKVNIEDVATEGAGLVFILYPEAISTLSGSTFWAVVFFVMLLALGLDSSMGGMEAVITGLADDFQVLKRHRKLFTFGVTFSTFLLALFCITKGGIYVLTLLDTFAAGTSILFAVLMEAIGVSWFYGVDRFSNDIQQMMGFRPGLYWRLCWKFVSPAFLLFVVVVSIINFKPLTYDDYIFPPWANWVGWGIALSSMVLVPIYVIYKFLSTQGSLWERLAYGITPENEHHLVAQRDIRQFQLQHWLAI
Chain of Alpha-1B adrenergic receptor (Homo sapiens) (P35368 whole entry): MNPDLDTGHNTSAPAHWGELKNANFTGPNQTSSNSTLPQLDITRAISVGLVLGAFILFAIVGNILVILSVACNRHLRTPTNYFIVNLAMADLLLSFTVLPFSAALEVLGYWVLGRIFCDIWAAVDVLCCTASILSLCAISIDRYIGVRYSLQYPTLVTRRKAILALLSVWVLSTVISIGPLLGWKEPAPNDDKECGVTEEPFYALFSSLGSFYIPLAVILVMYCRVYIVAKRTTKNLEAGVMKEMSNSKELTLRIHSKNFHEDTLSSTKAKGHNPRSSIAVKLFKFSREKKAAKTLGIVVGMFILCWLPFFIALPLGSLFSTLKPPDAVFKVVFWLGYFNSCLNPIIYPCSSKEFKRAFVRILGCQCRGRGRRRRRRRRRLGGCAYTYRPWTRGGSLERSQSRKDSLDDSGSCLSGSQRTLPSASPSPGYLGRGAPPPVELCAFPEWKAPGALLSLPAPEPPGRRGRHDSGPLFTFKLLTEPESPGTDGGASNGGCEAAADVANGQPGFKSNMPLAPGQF
Chain of Serine/threonine-protein kinase MRCK alpha (Homo sapiens) (Q5VT25 whole entry): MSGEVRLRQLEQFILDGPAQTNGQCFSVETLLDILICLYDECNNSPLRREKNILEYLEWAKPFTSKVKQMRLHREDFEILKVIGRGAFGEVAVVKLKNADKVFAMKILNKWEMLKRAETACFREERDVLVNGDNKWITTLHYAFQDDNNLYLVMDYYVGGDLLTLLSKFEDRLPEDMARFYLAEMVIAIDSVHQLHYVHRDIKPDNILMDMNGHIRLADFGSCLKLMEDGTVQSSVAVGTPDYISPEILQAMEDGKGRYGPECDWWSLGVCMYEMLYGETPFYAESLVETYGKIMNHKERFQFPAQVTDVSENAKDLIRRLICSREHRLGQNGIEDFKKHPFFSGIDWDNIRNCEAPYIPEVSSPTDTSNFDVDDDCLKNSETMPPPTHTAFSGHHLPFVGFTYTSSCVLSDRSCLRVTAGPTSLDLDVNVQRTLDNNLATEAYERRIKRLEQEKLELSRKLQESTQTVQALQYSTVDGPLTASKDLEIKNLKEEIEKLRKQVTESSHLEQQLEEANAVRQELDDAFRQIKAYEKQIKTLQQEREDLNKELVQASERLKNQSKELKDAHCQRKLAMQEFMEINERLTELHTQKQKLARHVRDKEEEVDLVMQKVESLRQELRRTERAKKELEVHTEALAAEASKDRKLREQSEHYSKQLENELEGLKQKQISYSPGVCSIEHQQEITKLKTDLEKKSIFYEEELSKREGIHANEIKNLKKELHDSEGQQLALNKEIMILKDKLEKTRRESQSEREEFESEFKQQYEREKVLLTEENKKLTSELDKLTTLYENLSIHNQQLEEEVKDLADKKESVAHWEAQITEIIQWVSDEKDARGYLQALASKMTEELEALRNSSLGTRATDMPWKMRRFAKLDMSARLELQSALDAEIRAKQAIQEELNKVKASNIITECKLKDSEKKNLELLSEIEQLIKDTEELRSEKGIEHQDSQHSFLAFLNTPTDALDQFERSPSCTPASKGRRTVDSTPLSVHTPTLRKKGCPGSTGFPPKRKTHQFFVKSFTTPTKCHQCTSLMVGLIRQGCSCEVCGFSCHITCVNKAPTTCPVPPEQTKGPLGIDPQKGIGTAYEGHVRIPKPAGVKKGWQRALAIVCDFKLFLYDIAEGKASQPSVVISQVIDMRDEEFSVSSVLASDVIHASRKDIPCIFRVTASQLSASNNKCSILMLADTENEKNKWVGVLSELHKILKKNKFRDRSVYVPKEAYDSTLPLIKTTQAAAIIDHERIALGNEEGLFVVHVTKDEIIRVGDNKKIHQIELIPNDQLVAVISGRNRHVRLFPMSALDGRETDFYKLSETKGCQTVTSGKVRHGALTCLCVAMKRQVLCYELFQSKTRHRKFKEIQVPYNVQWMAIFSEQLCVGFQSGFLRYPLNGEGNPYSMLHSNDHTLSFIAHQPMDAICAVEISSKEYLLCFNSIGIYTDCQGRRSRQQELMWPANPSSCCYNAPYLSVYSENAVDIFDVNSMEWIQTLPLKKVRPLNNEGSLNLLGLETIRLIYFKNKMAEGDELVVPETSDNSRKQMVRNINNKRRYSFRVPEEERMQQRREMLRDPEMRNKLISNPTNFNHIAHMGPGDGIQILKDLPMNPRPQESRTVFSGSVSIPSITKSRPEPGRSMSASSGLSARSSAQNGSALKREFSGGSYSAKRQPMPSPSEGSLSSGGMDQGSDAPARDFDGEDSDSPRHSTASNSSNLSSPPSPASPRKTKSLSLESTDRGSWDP
Chain of Protein kinase C iota type (Homo sapiens) (P41743 whole entry): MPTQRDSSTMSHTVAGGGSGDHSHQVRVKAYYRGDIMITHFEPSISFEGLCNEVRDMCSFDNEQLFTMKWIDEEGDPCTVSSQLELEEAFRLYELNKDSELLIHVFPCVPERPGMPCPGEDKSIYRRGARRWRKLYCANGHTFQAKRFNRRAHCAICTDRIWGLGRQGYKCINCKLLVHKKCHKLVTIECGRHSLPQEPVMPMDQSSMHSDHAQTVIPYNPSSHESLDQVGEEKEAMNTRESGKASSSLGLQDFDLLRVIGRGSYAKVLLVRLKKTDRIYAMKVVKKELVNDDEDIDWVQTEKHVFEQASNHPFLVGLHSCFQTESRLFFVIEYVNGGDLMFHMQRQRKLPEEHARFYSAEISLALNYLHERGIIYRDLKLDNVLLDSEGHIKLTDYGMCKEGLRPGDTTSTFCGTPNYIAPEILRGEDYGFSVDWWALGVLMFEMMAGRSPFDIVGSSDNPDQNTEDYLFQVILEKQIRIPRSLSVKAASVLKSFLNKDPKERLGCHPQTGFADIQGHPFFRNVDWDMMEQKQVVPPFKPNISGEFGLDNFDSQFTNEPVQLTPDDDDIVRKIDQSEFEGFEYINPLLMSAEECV
Chain of Serine/threonine-protein kinase pim-1 (Homo sapiens) (P11309 whole entry, looked up): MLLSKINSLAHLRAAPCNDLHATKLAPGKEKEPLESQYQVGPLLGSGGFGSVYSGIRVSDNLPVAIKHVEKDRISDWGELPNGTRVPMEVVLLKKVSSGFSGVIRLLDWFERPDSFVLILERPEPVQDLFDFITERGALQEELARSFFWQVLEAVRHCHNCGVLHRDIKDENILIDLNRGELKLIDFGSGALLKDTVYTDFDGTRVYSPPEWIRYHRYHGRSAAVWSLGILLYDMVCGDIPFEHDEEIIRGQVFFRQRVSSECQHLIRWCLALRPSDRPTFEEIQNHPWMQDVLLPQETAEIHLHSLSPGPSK
Chain of Alpha-1A adrenergic receptor (Homo sapiens) (P35348 whole entry): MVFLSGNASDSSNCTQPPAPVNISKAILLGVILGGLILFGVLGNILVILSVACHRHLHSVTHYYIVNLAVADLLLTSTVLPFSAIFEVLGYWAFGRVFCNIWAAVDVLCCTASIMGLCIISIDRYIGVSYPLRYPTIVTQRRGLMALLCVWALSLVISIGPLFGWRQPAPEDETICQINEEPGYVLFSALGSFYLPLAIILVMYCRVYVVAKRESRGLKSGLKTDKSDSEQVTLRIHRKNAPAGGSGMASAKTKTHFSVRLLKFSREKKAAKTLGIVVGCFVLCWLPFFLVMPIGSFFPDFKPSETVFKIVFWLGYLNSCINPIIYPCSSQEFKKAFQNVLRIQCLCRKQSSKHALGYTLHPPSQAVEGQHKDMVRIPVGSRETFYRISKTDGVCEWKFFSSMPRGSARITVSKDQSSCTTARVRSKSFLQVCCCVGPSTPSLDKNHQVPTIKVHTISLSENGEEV

SMILES: C=CC(=O)Nc1ccc2[nH]c(=O)n(C3CCN(Cc4ccc(-c5nc6cc[nH]c(=O)c6cc5-c5ccccc5)cc4)CC3)c2c1 [Borussertib]
- inhibition [1]: -4%
- inhibition [2]: -2%
- inhibition [3]: 12%
- inhibition [4]: -1%
- inhibition [5]: 6%
- inhibition [6]: 3.07%
- inhibition [7]: 6%
- inhibition [8]: 8%
- inhibition [9]: 22.1%
- inhibition [10]: 8%
- inhibition [11]: 3%
- Ki ([12]; read-out: Ki): 3.66 µM
- Ki ([12]; read-out: pKi (converted)): 3.63 µM
- inhibition [13]: -2%
- inhibition [14]: 2%
- inhibition [15]: 6.51%
- inhibition [16]: 14%
- inhibition [17]: -3%
- inhibition [18]: 0%
- inhibition [19]: 7%
- inhibition [20]: 15%
- inhibition [21]: 14%
- inhibition [22]: 21%
- inhibition [23]: 72.2%
- inhibition [24]: 2%
- inhibition [25]: 10%
- inhibition [26]: 72.3%
- inhibition [27]: -7%
- inhibition [28]: 52.3%
- inhibition [29]: 8%
- inhibition [30]: -6%
- inhibition [31]: 19.2%
- inhibition [32]: 4.49%
- inhibition [33]: -1%
- inhibition [34]: 17%
- inhibition [35]: 7%
- inhibition [36]: 7%
- inhibition [37]: 6%
- inhibition [38]: 28.8%
- inhibition [39]: 10%
- inhibition [40]: 2.16%
- inhibition [41]: -7.2%
- inhibition [42]: 8%
- inhibition [43]: -4%
- inhibition [44]: 2%
